Measured values as given in patent US8486991B2, “Enantiomerically pure phosphoindoles as HIV inhibitors” (Idenix Pharmaceuticals, Inc., priority 2006, dated 2013).
Where “and” joins values, the source holds several entries; their conditions need not be identical. Equal entries are not always repeated. Entries after “also recorded” stand apart in the source; their conditions may differ. Where two headings read alike, the source gives them in different places.

Key:
[1] = system: HIV-1 BH10 K103N mutant virus; test: microbe, parasite or virus in culture; format: cell-based; details: for EC50: unit inferred; for Fold Change, K103N: Table 7
MT-4 cells = test: Cellular cytotoxicity, 4 days, MTS, MT-4; details: for CC50: read-out: Average CC50 Values ± Standard Deviation, MT-4, Table 21, 4 days, MTS
Experimental: Following drug exposure for 4 days, cell viability was measured by MTS staining and CC50 values were determined. Drug concentrations ranged from 0.005 μM to 100 μM.
The preceding data, allows us to calculate selectivity index (SI) values, based on the ratio of CC50 to EC50 in MT-4 cells (the standard assay used in this work).

[2] = system: CYP3A4 (activation of PXR in DPX2 cells); test: CYP3A4 induction screen in DPX2 cells; format: cell-based, human; details: extent compared with rifampicine, mifepristone, androstanol
Text: The potential for in vitro induction of CYP3A4 was screened in DPX2 cells. The DPX2 cell line is a derivative of a human hepatocellular carcinoma cell line (HepG2) transformed with the human pregnane x receptor (PXR) and a reporter gene vector containing the enhancer region of CYP3A4. The potential for in vitro induction of CYP1A2 was screened in CYP1A2-DRE cells. The CYP1A2-DRE cell line is a stably transformed HepG2 cells with dioxin response elements (DRE) and reporter gene containing CYP1A2 promoter elements. The extent of CYP3A4 induction was determined by comparing the activation of PXR obtained with test article to that obtained with rifampicine (potent inducer), mifepristone (moderate inducer) and androstanol (weak inducer). The extent of CYP1A2 induction was determined by comparing the activation of the aryl hydrocarbon receptor (AhR) obtained with test article to that obtained with TCDD (potent inducer), omeprazole (moderate inducer), and 2-acetylaminofluorene (weak inducer).

[3] = Plasma protein binding by equilibrium dialysis, monkey; format: in vitro ADME
Experimental: (§1) The in vitro plasma protein binding of compound I and compound III in rat, dog, monkey and human plasma was determined by equilibrium dialysis. Protein binding was assessed by equilibrium dialysis using rat, dog, monkey and human plasma. Samples were assayed by HPLC with LC-MS/MS detection. Plasma protein binding was high (>99%) for all species and for both compounds.

[4] = Plasma protein binding by equilibrium dialysis, human; format: in vitro ADME
Experimental: as §1

[5] = Compound depletion in hepatocytes, rat; format: in vitro ADME; details: up to 2 hours, read-out: t½, Compound Depletion in Hepatocytes, Rat
Experimental: (§2) Fresh hepatocytes were plated onto collagen-coated plates and exposed to test compounds at 1 μM for up to 2 hours. Tissue culture medium was assayed for compound depletion by LC/MS detection. Values in Table 23 represent independent experiments from 5 to 7 donors.

[6] = Compound depletion in hepatocytes, dog; format: in vitro ADME; details: up to 2 hours, read-out: t½, Compound Depletion in Hepatocytes, Dog
Experimental: as §2

[7] = Compound depletion in hepatocytes, human; format: in vitro ADME; details: up to 2 hours; for t½, Compound Depletion in Hepatocytes, Human: 1 μM; for half-life at 1 μM: human, read-out: t½, Compound Depletion in Hepatocytes, Human
Experimental: as §2

[8] = In vitro half-life in liver microsomes, monkey; format: in vitro ADME; details: up to one hour, n=1
Experimental: (§3) In vitro metabolism was assessed using liver microsomes for all species. Compounds were incubated at 1 μM with liver microsomes for up to one hour. Reported half-lives greater than the total incubation time are extrapolated values. Extracts were assayed for disappearance of parent compound by LC-MS/MS detection.
(§4) Data represents one independent experiment conducted.

[9] = In vitro half-life in liver microsomes, human; format: in vitro ADME; details: up to one hour, longer half-lives are extrapolated, n=1
Experimental: as §3, §4

wild-type HIV-1 virus = test: In vitro drug-drug interaction with NRTIs and PIs, MT-4 cells, 45% HS; format: cell-based; details: 45% human serum, low (1×) and high (5×) concentration
Experimental: The in vitro effect of each antiretroviral drug on the antiviral activity of either test article was tested in triplicate on wild-type HIV-1 virus infection of MT-4 human T cells using a standard drug susceptibility assay (DSA) performed in 45% human serum (HS) to provide a better estimate of interactions that would occur under protein binding conditions found in vivo. Compound I or Compound III were titrated alone or in combination with each NRTI or PI.
The impact of each NRTI or PI on the efficacy of Compound I or Compound III was tested at two different drug concentrations, a “low” (1×) and a “high” (5×) concentration; the high concentration used for each compound was determined from pilot experiments conducted to ensure that measurable inhibition values could still be obtained in the presence of 45% HS.
These in vitro drug-drug interaction studies were powered primarily to determine the potential for negative interactions between the different classes of HIV drugs, rather than to examine the potential for synergy between the different agents.

CYP2B6 = target: T1, CYP2B6 (Homo sapiens, UniProt P20813); test: Human liver microsomal CYP450 inhibition, CYP2B6; details: for IC50, CYP2B6: human liver microsomes
T1 sequence (P20813 1-491): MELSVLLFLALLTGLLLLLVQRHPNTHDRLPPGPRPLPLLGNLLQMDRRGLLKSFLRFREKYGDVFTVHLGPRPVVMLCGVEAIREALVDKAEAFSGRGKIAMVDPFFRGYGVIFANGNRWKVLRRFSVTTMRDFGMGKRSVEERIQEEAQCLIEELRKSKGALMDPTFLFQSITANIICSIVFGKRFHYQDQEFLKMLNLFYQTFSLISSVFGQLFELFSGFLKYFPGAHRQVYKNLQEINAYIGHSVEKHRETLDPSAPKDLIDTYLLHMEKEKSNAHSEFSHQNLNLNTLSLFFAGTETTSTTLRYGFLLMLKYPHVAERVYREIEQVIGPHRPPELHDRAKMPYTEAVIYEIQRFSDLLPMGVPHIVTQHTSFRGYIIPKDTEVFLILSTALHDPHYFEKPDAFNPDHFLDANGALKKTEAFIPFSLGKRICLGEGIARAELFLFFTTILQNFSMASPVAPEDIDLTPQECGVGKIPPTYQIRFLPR
Experimental: (§5) In addition, the type of inhibition was also evaluated.
(§6) Enzyme kinetic studies of cytochrome P450 isozyme inhibition were conducted using human liver microsomes.

CYP2D6 = CYP2D6 (Homo sapiens, UniProt P10635); test: Human liver microsomal CYP450 inhibition, CYP2D6; details: for IC50, CYP2D6: human liver microsomes
Chain of CYP2D6 (P10635 whole entry): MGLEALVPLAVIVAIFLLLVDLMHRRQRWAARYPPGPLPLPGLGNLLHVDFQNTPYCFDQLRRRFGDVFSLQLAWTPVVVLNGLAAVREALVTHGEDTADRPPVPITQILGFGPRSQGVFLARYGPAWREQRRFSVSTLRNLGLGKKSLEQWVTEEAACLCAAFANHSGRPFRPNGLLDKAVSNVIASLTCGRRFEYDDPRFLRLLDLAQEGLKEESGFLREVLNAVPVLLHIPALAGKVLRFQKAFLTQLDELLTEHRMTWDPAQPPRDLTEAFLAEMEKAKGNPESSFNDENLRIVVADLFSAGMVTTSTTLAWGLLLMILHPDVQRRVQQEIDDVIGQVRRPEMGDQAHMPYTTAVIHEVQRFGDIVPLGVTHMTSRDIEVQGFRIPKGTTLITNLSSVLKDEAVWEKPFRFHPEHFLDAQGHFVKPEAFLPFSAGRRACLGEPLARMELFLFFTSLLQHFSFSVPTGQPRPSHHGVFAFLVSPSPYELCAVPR
Experimental: as §5, §6

CYP3A4 = CYP3A4 (Homo sapiens, UniProt P08684); test: Recombinant CYP450 inhibition, fluorometric, CYP3A4; format: in vitro ADME; set-up: from tissue; host or cells: pooled human liver microsomes
Chain of CYP3A4 (P08684 whole entry, the tested form may be a part): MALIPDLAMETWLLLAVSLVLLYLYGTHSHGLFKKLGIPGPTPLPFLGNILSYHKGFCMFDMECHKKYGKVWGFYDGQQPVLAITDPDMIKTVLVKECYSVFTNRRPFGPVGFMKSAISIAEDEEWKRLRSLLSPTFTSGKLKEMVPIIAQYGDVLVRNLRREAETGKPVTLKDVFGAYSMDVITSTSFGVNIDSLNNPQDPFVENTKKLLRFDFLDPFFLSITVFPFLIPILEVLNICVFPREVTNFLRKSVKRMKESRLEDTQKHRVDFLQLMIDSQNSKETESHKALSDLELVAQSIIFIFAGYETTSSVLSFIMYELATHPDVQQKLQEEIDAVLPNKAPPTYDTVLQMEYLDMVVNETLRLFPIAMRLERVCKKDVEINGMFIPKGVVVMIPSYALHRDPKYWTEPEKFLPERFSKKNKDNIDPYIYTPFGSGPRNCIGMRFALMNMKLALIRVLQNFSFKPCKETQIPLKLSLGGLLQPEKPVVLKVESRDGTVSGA
Experimental: Compounds were assayed using recombinant human microsomal proteins with fluorometric substrates. Signal was measured with a Fusion plate reader utilizing the appropriate excitation and emission wavelength set to detect the specific metabolite: […]

[10] = fresh hepatocytes plated on collagen-coated plates

| Compound | Fold Change, K103N [1] | Selectivity Index (SI), CC50/EC50 in MT-4 cells (MT-4 cells) | CC50 (MT-4 cells) | Induction, DPX2 (CYP3A4) [2] | Percentage Plasma Protein Binding, Monkeys [3] | Percentage Plasma Protein Binding, Humans [4] | t½, Compound Depletion in Hepatocytes, Human [7] | interaction with 7 NRTIs or 6 PIs (wild-type HIV-1 virus) | IC50 (CYP2B6) | IC50, CYP2B6 (CYP2B6) | IC50 (CYP2D6) | IC50, CYP2D6 (CYP2D6) | further results |
| --- | --- | --- | --- | --- | --- | --- | --- | --- | --- | --- | --- | --- | --- |
| CO[P@](=O)(c1cc(C)cc(/C=C/C#N)c1)c1c(C(N)=O)[nH]c2ccc(Cl)c(F)c12 [Compound I, (2-Carbamoyl-5-chloro-4-fluoro-1H-indol-3-yl)-[3-((E)-2-cyano-vinyl)-5-methyl-phenyl]-(R)-phosphinic acid methyl ester] | 0.9 ± 0.4 fold | > 18,000 and > 22,000 | 18.6 ± 3.1 µM | moderate inducers; also recorded: Moderate (n = 2) | 99.9% | 99.8% | limited in vitro metabolism | no negative interaction observed; also recorded: none of the seven HIV NRTI drugs or the six HIV PI drugs tested exhibited a measurable negative or antagonistic interaction | > 20 µM | not observed | > 20 µM | not observed | EC50 ([1]; Human immunodeficiency virus 1, MT4, read-out: EC50, K103N, Example 16 comparative tables): 0.6 ± 0.2 nM; EC50 ([1]; read-out: EC50, K103N, Example 16 comparative tables): 0.9 nM; half-life at 1 μM ([5]; hepatocytes): 33 ± 26 min; half-life at 1 μM ([6]; hepatocytes): 28 ± 14 min; half-life at 1 μM ([7]; hepatocytes): 215 ± 48 min; half-life at 1 μM ([8]; microsomes): 15.4 min; half-life at 1 μM ([9]; microsomes): 121 min; IC50 (CYP3A4): 1460 ± 390 nM |
| CO[P@](=O)(c1cc(C)cc(/C=C/C#N)c1)c1c(C(N)=O)[nH]c2ccc(Cl)cc12 [Compound III, (2-Carbamoyl-5-chloro-1H-indol-3-yl)-[3-((E)-2-cyano-vinyl)-5-methyl-phenyl]-(R)-phosphinic acid methyl ester] | 1.2 ± 0.4 fold | > 22,000 and > 18,000 | 27.3 ± 12.9 µM | moderate inducers; also recorded: Moderate (n = 2) | 99.9% | 99.9% | limited in vitro metabolism | no negative interaction observed; also recorded: none of the seven HIV NRTI drugs or the six HIV PI drugs tested exhibited a measurable negative or antagonistic interaction | > 20 µM | not observed | > 20 µM | not observed | half-life at 1 μM [5, 10]: 17 ± 15 min; half-life at 1 μM [6, 10]: 21 ± 10 min; half-life at 1 μM [7, 10]: 125 ± 55 min; half-life at 1 μM ([8]; liver microsomes): 12.6 min; half-life at 1 μM ([9]; liver microsomes): 154 min; IC50 (CYP3A4; recombinant, highest concentration tested 10 μM, read-out: IC50, CYP3A4): 2860 ± 780 nM |
